Experimental data from ChEMBL document CHEMBL1133366, “Synthesis and structure-activity relationships of 3-cyano-4-(phenoxyanilino)quinolines as MEK (MAPKK) inhibitors” (Bioorg Med Chem Lett, 2000).

What was measured:
[1] = molecular target: Dual specificity mitogen-activated protein kinase kinase 1 (Homo sapiens, UniProt Q02750); assay: Inhibition of ERK-phosphorylation by MEK-ERK in direct ELISA
[2] = molecular target: T1, Serine/threonine-protein kinase RAF and Dual specificity mitogen-activated protein kinase kinase 1 (Raf/MEK) (Homo sapiens, UniProt P04049+Q02750); assay: Inhibition of ERK-phosphorylation by Raf-MEK-ERK in coupled ELISA; type: protein assay
COLO 205 = assay: cells; conditions: Homo sapiens
Description: Inhibition of COLO 205 human colon tumor cell proliferation

SW-620 = assay: Inhibition of SW620 human colon tumor cell proliferation
LoVo = assay: Inhibition of LoVo human colon tumor cell proliferation
[3] = molecular target: T1, Serine/threonine-protein kinase RAF and Dual specificity mitogen-activated protein kinase kinase 1 (Raf/MEK); assay: Inhibition of ERK phosphorylation in coupled Raf-MEK-ERK ELISA (Weakly active); type: protein assay

Dual specificity mitogen-activated protein kinase kinase 1, sequence (Q02750 whole entry): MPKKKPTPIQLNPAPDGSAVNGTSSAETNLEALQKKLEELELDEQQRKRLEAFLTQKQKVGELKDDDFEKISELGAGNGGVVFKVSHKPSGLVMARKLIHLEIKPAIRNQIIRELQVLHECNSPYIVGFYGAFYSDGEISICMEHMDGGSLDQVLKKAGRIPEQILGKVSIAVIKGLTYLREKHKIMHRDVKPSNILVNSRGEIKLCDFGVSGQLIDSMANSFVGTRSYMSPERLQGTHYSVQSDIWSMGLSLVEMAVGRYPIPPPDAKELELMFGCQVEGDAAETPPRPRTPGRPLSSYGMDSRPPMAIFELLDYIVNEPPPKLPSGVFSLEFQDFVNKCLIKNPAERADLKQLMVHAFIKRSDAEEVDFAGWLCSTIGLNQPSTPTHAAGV

Row | SMILES | IC50 [1] | IC50 [2] | IC50 (COLO 205) | IC50 (SW-620) | IC50 (LoVo) | IC50 [3]
1 | COc1cc2c(Nc3ccc(Oc4ccccc4)cc3)c(C#N)cnc2c(OC)c1OC | > 10000 nM | > 10000 nM | – | – | – | –
2 | COc1ccc(OC)c2c(Nc3ccc(Oc4ccccc4)cc3)c(C#N)cnc12 | > 10000 nM | > 10000 nM | – | – | – | –
3 | COc1cccc2c(Nc3ccc(Oc4ccccc4)cc3)c(C#N)cnc12 | > 10000 nM | > 10000 nM | – | – | – | –
4 | COc1cc2c(Nc3ccc(Oc4ccccc4)cc3)c(C#N)cnc2cc1OCCCN1CCOCC1 | 7 nM | 2.4 nM | 360 nM | 380 nM | 190 nM | –
5 | COc1cc2ncc(C#N)c(Nc3ccccc3Oc3ccccc3)c2cc1OC | > 10000 nM | > 10000 nM | – | – | – | –
6 | COc1cc2c(Nc3ccc(Oc4ccccc4)cc3)c(C#N)cnc2cc1OCCN1CCOCC1 | – | – | 630 nM | 700 nM | 250 nM | –
7 | COc1cc2ncnc(Nc3ccc(Oc4ccccc4)cc3)c2cc1OC | – | – | – | – | – | > 100000 nM
8 | COc1cc2ncc(C#N)c(Nc3ccc(Oc4ccccc4)cc3)c2cc1OC | – | – | 1430 nM | 1500 nM | 630 nM | –
